According to patent US20070093460A1, “Methods of using selective 11beta-HSD inhibitors to treat gluocorticoid associated states” (priority 2005, published 2007):
Entries after “also recorded” stand apart in the source; their conditions may differ. Like-named read-outs stand apart in the source and are kept apart here.

Key:
11β-HSD1 Dehydrogenase [1] = target: T1, 11β-HSD1 Dehydrogenase (Rattus norvegicus, UniProt P16232); assay: Table 1: inhibition of 11β-HSD1 dehydrogenase; type: biochemical; conditions: Table 1, inhibition in words
11β-HSD1 Dehydrogenase [2] = target: T1, 11β-HSD1 Dehydrogenase; assay: 11β-HSD1 dehydrogenase assay in rat Leydig cell homogenates; type: biochemical; parameters: Freshly prepared rat Leydig cell homogenates were chosen since they provide a rich and reliable source of both 11β-HSD1 dehydrogenase and reductase; from tissue; host or cells: rat testicular Leydig cells, homogenate; conditions: for inhibitors of 11β-HSD1 dehydrogenase (summary in words): summary of the screening; for Leydig Cell 11β-HSDl Dehydrogenase [S] = 600 nM: progesterone and androgen derivatives;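 as to all read-outs here: tritiated corticosterone conversion by 11β-HSD1 dehydrogenase in Leydig homogenates with 3 mM NADP at pH 8.4, 37 °C for 10 min, products resolved by HPLC, inhibition relative to uninhibited enzyme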
Protocol: (§1) Each enzyme reaction (described below) was stopped by adding 750 μL MeOH. After centrifugation, an aliquot of supernatant was analyzed by HPLC using a DuPont Zorbax C8 column.
(§2) 11β-HSD1 dehydrogenase was assayed by incubating homogenates (13,000 cells equivalent) with 600 nM [^3H]-B (0.5 μCi) in the presence of 3 mM NADP, 50 mM Tris-HCl; pH 8.4 at 37° C. for 10 minutes in a total volume of 250 μL. 11β-HSD1 reductase was assayed by incubating homogenates (52,000 cells equivalent) with 600 nM [^3H]-11-dehydro-corticosterone in presence of 3 mM NADPH, 50 mM Tris-HCl; pH 7.4 at 37° C. for 20 minutes in a total volume of 250 μL.
(§3) Each concentration was tested in triplicate and the dose response curve, showing percentage inhibition versus log concentration of steroid was plotted. The data fitted a log-linear straight line.

11β-HSD2 = target: T2, 11β-HSD2 (Ovis aries, UniProt P50168); assay: 11β-HSD2 enzyme activity in sheep kidney microsomes; type: biochemical; conditions: for inhibitors of 11β-HSD2 (summary in words): summary of the screening
T2 construct: incubating sheep kidney microsomal fraction (6.5 μg protein) with 50 nM corticosterone; from tissue; host or cells: sheep kidney microsomal fraction
T2 sequence (P50168 1-427): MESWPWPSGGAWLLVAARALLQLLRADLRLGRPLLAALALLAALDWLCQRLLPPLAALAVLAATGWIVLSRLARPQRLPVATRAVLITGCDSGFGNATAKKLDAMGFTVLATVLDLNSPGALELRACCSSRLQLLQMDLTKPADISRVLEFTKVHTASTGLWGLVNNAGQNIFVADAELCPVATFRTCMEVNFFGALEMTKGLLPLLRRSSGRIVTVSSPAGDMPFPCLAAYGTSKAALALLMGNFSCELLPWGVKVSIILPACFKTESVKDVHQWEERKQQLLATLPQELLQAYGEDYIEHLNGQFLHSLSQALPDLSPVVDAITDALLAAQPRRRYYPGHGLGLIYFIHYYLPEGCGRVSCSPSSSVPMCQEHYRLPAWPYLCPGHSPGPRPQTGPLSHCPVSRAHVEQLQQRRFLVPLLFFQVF
Excerpt: The enzymatic reaction was termninated by addition of methanol and synthesis of 11-dehydro-corticosterone was quantitated by HPLC as described above.

11β-HSD1 Reductase [3] = target: T3, 11β-HSD1 Reductase (Rattus norvegicus, UniProt P16232); assay: 11β-HSD1 reductase assay in rat Leydig cell homogenates; conditions: for Leydig Cell 11β-HSD1 Reductase [S]= 600 nM: rat Leydig cell homogenates, 600 nM 11-dehydro-corticosterone;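 as to all read-outs here: rat Leydig cell homogenate incubated 20 min at 37 °C, pH 7.4, with tritiated 11-dehydro-corticosterone and 3 mM NADPH, product measured by HPLC, inhibition from triplicate dose–response curves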
Protocol: as §1, §2, §3

11β-HSD2 Dehydrogenase = target: T4, 11β-HSD2 Dehydrogenase (Ovis aries, UniProt P50168); assay: Table 1: inhibition of 11β-HSD2 dehydrogenase; type: biochemical; conditions: Table 1, inhibition in words
T4 sequence (P50168 1-427): T2 sequence (P50168 1-427)

11β-HSD1 Reductase [4] = target: T3, 11β-HSD1 Reductase; assay: Table 1: inhibition of 11β-HSD1 reductase; type: biochemical; conditions: Table 1, inhibition in words
rat aortic rings = assay: Contractile response of rat aortic rings to phenylephrine; type: cell-based; conditions: rings incubated 24 h with steroid (corticosterone 10 nmol/L; 11-dehydro-corticosterone 100 nmol/L)
Protocol: Male Sprague-Dawley (150-200 g) rats were anesthetized with pentobarbital (50 mg/kg IP), and a median sternotomy was performed followed by the rapid removal of the thoracic aorta. The adventitia was removed, but the endothelium was left intact. The aorta was cut into 2-3 mm rings and individual rings were placed into a single well of a twenty four well culture plate and incubated at 37° C. under 95% 02-5% CO2. Each well contained 1 mL of DMEM/F12 containing 1% fetal bovine serum, streptomycin (100 μg/ml), penicillin (100 units/ml) and amphotericin (0.25 μg/ml). Aortic rings were incubated for 24 hours prior to contractility measurements with the following combinations of steroids, and antisense/nonsense oligonucleotides (3 μmol/L):
Antisense phosphorothioate oligonucleotides, targeted to block either 11β-HSD2 or 11β-HSD1 gene expression, were obtained from Research Genetics, Huntsville Ala. Antisense oligomers complementary to 20 bp sequences spanning the ribosome binding/translation start site were used. Oligomer sequences were: 5′-CATAACTGCCGTCCAACAGC-3′ (SEQ ID NO. 1) for 11β-HSD1 Antisense and 5′-AGGCCAGCGCTCCATGACTT-3′ (SEQ ID NO 2) for 11β-HSD2 antisense. In control experiments the corresponding sense sequence was used as the nonsense oligomer. Antisense and nonsense oligomers were added directly to each well at 20 μg/10:1 sterile H2O per well for a final concentration of 3 μmol/L.
For contraction measurements, aortic rings were suspended by tungsten wires with 1 g of tension and placed in a vessel bath containing serum free DMEM/F12 media at 37° C. aerated with 95% O2-5% CO2, at pH 7.4. Vessels were equilibrated for 20 minutes and then tested with phenylephrine (1 nmol/L-10 μmol/L). Although phenylephrine is structurally not a catecholamine, it is considered to be a functional catecholamine as it activates both a and P adrenoceptors. Due to its favorable stability characteristics, it is widely used as a catecholamine substitute in experiments of this nature. The intensity of contraction was assessed by use of a Narishige micromanipulator and model FT03 force transducer (Grass Instrument Co. West Warwick, R.I.). Measurements were recorded on computer using the Labview 4.1 Virtual Instrument System (National Instruments, Austin, Tex.).

[5] = rat Leydig cell homogenates, 600 nM corticosterone, NADP, corticosteroid series, read-out: Leydig Cell 11β-HSD1 Dehydrogenase [S]= 600 nM
[6] = 11β-HSD2, sheep kidney microsomes, 50 nM corticosterone, NAD+, aldosterone, cortisol, corticosterone series, read-out: Dehydrogenase [S] = 50 nM
[7] = rat Leydig cell homogenates, 600 nM corticosterone

T1 sequence (P16232 whole entry): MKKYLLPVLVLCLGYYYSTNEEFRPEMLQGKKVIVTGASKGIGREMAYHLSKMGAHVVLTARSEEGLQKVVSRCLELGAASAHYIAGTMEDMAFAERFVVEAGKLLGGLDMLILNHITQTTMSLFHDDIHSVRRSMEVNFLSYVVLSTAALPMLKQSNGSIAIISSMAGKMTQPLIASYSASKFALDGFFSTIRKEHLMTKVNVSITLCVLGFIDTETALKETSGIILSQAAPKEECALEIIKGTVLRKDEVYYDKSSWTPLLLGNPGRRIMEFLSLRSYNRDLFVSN
T3 sequence (P16232 whole entry): as above

SMILES	11β-HSD1 Dehydrogenase (11β-HSD1 Dehydrogenase [1])	IC50 (11β-HSD1 Dehydrogenase [2]) [µM]	inhibitors of 11β-HSD1 dehydrogenase (summary in words) (11β-HSD1 Dehydrogenase [2])	IC50 (11β-HSD2) [µM]	IC50 (11β-HSD1 Reductase [3]) [µM]	11β-HSD2 Dehydrogenase (11β-HSD2 Dehydrogenase)	11β-HSD1 Reductase (11β-HSD1 Reductase [4])	IC50 (11β-HSD1 Dehydrogenase [2]; [5]) [µM]	IC50 (11β-HSD2; [6]) [µM]	inhibitors of 11β-HSD2 (summary in words) (11β-HSD2)	other results
C[C@]12C[C@H](O)[C@@H]3[C@@H](CCC4=CC(=O)CC[C@@]43C)[C@H]1CC[C@@H]2O [11β-OH-Testosterone, 4-Androsten-11β,17β-diol-3-one]	Inhibitor (Non-Selective)	9	potent inhibitors	0.35	> 100	Inhibitor (Non-Selective)	No Inhibition	–	–	–	inhibitors of 11β-HSD1 dehydrogenase (summary in words) (11β-HSD1 Dehydrogenase [2]; listed as 11β-OH-testosterone): high potency; inhibitors of 11β-HSD1 dehydrogenase (summary in words) (11β-HSD1 Dehydrogenase [2]; listed as 11β-hydroxy-testosterone): potently inhibit; inhibitors of 11β-HSD2 (summary in words) (11β-HSD2; listed as 11β-OH-testosterone): potent inhibitors; also recorded: high potency; Leydig Cell 11β-HSD1 Reductase [S]= 600 nM (11β-HSD1 Reductase [3]; progesterone and androgen derivatives): inactive
C[C@]12CC(=O)[C@H]3[C@@H](CCC4=CC(=O)CC[C@@]43C)[C@@H]1CC[C@@H]2C(=O)CO [11-dehydro-corticosterone]	–	–	–	–	–	–	–	> 100	0.47	potent inhibitors; also recorded: high potency	amplification of the contractile response to phenylephrine by the steroid (rat aortic rings): amplified the contractile response
C[C@]12CCC(=O)C[C@H]1CC[C@@H]1[C@H]2[C@@H](O)C[C@]2(C)[C@@H](C(=O)CO)CC[C@@H]12 [5α-DH-Corticosterone, 5α-Pregnan-11β,-21-diol-3,20-dione]	Potent Inhibitor	2.1	potent inhibitors; also recorded: high potency	0.15	6.3	Potent Inhibitor	No inhibition	–	–	potent inhibitors; also recorded: high potency	–
C[C@H](CCC(=O)O)[C@H]1CC[C@H]2[C@@H]3[C@H](O)C[C@@H]4C[C@H](O)CC[C@]4(C)[C@H]3CC[C@]12C [chenodeoxycholic acid]	Selective inhibitor	–	–	–	–	No Inhibition	No Inhibition	–	–	–	–
C[C@]12CCC(=O)C=C1CC[C@@H]1[C@H]2C(=O)C[C@]2(C)C(=O)CC[C@H]12 (stereo in doubt) [11 -Keto-Androstenedione, 4-Androsten-11,3,17-trione]	No Inhibition	> 100	–	> 10	21	No Inhibition	Selective Inhibitor	–	–	–	Leydig Cell 11β-HSDl Dehydrogenase [S] = 600 nM (11β-HSD1 Dehydrogenase [2]; [7]): inactive; Sheep kidney 11β-HSD2 [S] = 50 nM (11β-HSD2; sheep kidney microsomes, corticosterone substrate, progesterone and androgen derivatives): inactive
C[C@]12CC(=O)[C@@H]3[C@@H](CCC4=CC(=O)CC[C@@]43C)[C@H]1CC[C@@H]2O [11 -Keto-Testosterone, 4-Androsten-17β-ol-11,3-dione]	No Inhibition	> 100	–	1.35	18	No Inhibition	Selective Inhibitor	–	–	potent inhibitors; also recorded: high potency	Leydig Cell 11β-HSDl Dehydrogenase [S] = 600 nM (11β-HSD1 Dehydrogenase [2]; [7]): inactive
C[C@]12CC[C@@H](O)C[C@H]1CC[C@@H]1[C@H]2[C@@H](O)C[C@]2(C=O)[C@@H](C(=O)CO)CC[C@@H]12 [3α,5α-TH-Aldosterone, 5α-Pregnan-3α,11β,21-triol-20-one-18-al]	Moderate Inhibitor	–	–	–	> 100	Potent Inhibitor	No Inhibition	25	0.5	–	inhibitors of 11β-HSD2 (summary in words) (11β-HSD2; listed as 3α,5α-TH -aldosterone): potent inhibitors; inhibitors of 11β-HSD2 (summary in words) (11β-HSD2; listed as 3α,5α-TH-aldosterone): high potency; Leydig Cell 11β-HSD1 Reductase [S]= 600 nM (11β-HSD1 Reductase [3]; NADPH, corticosteroid series): inactive
C[C@]12CC[C@@H](O)C[C@H]1CC[C@@H]1[C@H]2C(=O)C[C@]2(C)[C@@H](C(=O)CO)CC[C@@H]12 [3α,5α-TH-11-dehydrocorticosterone, 5α-Pregnan-3α,21-diol-11,20-dione]	No Inhibition	–	–	–	0.7	Potent Inhibitor	Potent Inhibitor	8	0.8	potent inhibitors; also recorded: high potency	inhibitors of 11β-HSD1 reductase (summary in words) (11β-HSD1 Reductase [3]; summary of the screening): potent inhibitors; also recorded: high potency
C[C@]12CC[C@@H](O)C[C@H]1CC[C@@H]1[C@H]2[C@@H](O)C[C@]2(C)[C@@H](C(=O)CO)CC[C@@H]12 [3α,5α-TH-Corticosterone, 5α-Pregnan-3α,11β,21-triol-20-one]	Potent Inhibitor	–	potent inhibitors; also recorded: high potency	–	–	Potent Inhibitor	No Inhibition	1.3	0.26	potent inhibitors; also recorded: high potency	Leydig Cell 11β-HSD1 Reductase [S]= 600 nM (11β-HSD1 Reductase [3]; NADPH, corticosteroid series): weak inhibitor
C[C@]12C[C@H](O)[C@H]3[C@@H](CCC4=CC(=O)CC[C@@]43C)[C@@H]1CC[C@@H]2C(=O)CO [corticosterone, reference compound]	–	–	–	–	–	–	–	–	–	–	amplification of the contractile response to phenylephrine by the steroid (rat aortic rings): amplified contractile responses
